The record followed here is article PMC9516332 (Frontiers in Oncology, 2022).

Each structure is given as a SMILES string. Where two headings read alike, the source gives them in different places.

Holding throughout (assay): Kinase panel profiling at 1 µmol/L (MSA or IMAP), percentage inhibition
Holding throughout (assay type): biochemical

The target in assay [1] is panel of 255 wild-type kinases (Homo sapiens, UniProt Q16512). The conditions noted are these: read-out: %-inhibition at 1 µmol/L, PKN1.
The target of assay [2] is panel of 255 wild-type kinases (Homo sapiens, UniProt P22612). The settings on record: read-out: %-inhibition at 1 µmol/L, PKACγ.
Assay [3] addresses panel of 255 wild-type kinases (Homo sapiens, UniProt Q14012). The conditions noted are these: read-out: %-inhibition CaMK1α.
Assay [4] concerns the target panel of 255 wild-type kinases (Homo sapiens, UniProt P68400). The conditions noted are these: read-out: %-inhibition at 1 µmol/L, CK2α1/β.
The target of assay [5] is panel of 255 wild-type kinases (Homo sapiens, UniProt Q13464). The settings on record: read-out: %-inhibition at 1 µmol/L, ROCK1.
The target of assay [6] is panel of 255 wild-type kinases (Homo sapiens, UniProt P31751). The settings on record: read-out: %-inhibition AKT2.
The target of assay [7] is panel of 255 wild-type kinases (Homo sapiens, UniProt P23443). The conditions noted are these: read-out: %-inhibition, p70S6K.
Assay [8] addresses T1, panel of 255 wild-type kinases (Homo sapiens, UniProt P53778).
T1 sequence (P53778 1-367): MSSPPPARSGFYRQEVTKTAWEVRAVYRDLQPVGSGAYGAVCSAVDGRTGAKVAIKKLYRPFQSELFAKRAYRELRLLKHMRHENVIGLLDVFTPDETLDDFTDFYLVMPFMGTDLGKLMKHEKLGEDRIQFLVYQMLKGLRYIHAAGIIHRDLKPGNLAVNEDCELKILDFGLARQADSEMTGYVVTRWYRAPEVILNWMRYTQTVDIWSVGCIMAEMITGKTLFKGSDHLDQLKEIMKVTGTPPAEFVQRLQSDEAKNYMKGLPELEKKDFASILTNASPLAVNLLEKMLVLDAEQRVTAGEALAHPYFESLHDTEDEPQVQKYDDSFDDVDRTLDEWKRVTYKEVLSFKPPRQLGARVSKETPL
The settings on record: read-out: %-inhibition, p38γ.

Assay [9] deals with T2, panel of 255 wild-type kinases (Homo sapiens, UniProt P15735).
T2 sequence (P15735 1-406): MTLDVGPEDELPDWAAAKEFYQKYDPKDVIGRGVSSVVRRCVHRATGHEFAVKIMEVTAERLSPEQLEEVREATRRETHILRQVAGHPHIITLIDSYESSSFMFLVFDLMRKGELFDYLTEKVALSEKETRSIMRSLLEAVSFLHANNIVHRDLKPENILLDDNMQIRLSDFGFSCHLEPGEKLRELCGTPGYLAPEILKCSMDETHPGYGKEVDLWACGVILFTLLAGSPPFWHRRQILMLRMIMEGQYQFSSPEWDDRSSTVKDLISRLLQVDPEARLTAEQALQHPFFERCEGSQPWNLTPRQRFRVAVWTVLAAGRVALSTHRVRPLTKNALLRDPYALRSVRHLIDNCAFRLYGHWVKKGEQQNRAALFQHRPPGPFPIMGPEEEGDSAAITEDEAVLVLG
The settings on record: read-out: %-inhibition at 1 µmol/L, PHKG2.

Assay [10] addresses panel of 255 wild-type kinases (Homo sapiens, UniProt Q16620). The conditions noted are these: read-out: %-inhibition at 1 µmol/L, TRKB.
Assay [11] deals with T3, panel of 255 wild-type kinases (Homo sapiens, UniProt Q13043).
T3 sequence (Q13043 1-487): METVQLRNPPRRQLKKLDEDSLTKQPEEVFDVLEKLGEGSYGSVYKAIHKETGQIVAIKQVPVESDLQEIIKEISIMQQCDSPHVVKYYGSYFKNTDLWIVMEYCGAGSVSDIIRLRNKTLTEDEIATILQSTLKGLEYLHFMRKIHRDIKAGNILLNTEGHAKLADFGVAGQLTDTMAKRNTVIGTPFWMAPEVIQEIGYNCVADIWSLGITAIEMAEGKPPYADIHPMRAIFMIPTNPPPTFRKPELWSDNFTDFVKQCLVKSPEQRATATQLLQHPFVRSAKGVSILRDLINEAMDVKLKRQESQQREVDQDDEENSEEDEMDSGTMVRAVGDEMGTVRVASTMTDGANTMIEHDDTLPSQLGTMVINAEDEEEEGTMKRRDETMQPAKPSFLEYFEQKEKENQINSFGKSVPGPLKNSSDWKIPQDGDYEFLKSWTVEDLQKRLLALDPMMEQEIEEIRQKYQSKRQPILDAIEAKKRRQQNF
The settings on record: read-out: %-inhibition, MST1.

Assay [12] addresses T4, panel of 255 wild-type kinases (Homo sapiens, UniProt Q96BR1).
T4 sequence (Q96BR1 1-496): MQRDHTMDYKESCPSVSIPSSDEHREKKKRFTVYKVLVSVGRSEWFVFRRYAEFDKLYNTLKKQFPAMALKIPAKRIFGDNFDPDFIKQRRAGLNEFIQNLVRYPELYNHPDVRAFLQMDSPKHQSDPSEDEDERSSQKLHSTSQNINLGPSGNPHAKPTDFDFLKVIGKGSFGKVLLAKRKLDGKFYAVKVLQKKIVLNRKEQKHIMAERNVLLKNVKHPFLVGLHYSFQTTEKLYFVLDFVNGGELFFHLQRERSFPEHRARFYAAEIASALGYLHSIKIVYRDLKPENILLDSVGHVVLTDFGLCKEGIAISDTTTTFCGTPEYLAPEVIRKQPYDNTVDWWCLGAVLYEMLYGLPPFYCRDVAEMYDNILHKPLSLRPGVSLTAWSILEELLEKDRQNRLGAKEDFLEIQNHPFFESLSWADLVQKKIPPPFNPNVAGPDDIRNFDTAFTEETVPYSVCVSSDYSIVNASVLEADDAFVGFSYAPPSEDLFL
The conditions noted are these: read-out: %-inhibition at 1 µmol/L, SGK3.

The target of assay [13] is panel of 255 wild-type kinases (Homo sapiens, UniProt Q13882). The conditions noted are these: read-out: %-inhibition BRK.
The mark [14] stands for this setting: kinase PKN1, 1 µmol/L single concentration.
Setting [15] is: kinase PKACγ, 1 µmol/L single concentration.
[16] abbreviates: CaMK1α kinase assay, 1 µmol/L single concentration.
[17] abbreviates: kinase CK2α1/β, 1 µmol/L single concentration.
[18] abbreviates: kinase ROCK1, 1 µmol/L single concentration.
Setting [19] is: AKT2 kinase assay, 1 µmol/L single concentration.
[20] abbreviates: p70S6K, 1 µmol/L single concentration.
Where [21] appears, read: p38γ, 1 µmol/L single concentration.
Setting [22] is: kinase PHKG2, 1 µmol/L single concentration.
Setting [23] is: kinase TRKB, 1 µmol/L single concentration.
Where [24] appears, read: MST1, 1 µmol/L single concentration.
Setting [25] is: kinase SGK3, 1 µmol/L single concentration.
[26] abbreviates: BRK kinase assay, 1 µmol/L single concentration.

On to `Cc1nc(NC(=O)N2CCC[C@H]2C(N)=O)sc1-c1ccnc(C(C)(C)C(F)(F)F)c1` [alpelisib], for which the inhibition at 1 µM in [1] (setting [14]) was 8%; in [2] (setting [15]), -7.38%; in assay [3] (setting [16]) it was -10%; in [4] (setting [17]), -1.52%; in assay [5] (setting [18]), -0.415%; in assay [6] (setting [19]), -0.795%. The inhibition at 1 µM in assay [7] (setting [20]) was 9%; in assay [8] (setting [21]), -6%; in [9] (setting [22]), 1.64%; in assay [10] (setting [23]) it was -2.43%; in assay [11] (setting [24]), 5%; in assay [12] (setting [25]), 1.47%. The inhibition at 1 µM in [13] (setting [26]) was 2.75%.

In the case of `Cn1cc(-c2cc3c(N4CCN(c5ncc([C@@](C)(N)c6ccc(F)cc6)cn5)CC4)ncnn3c2)cn1` [avapritinib], the inhibition at 1 µM in assay [1] (setting [14]) was 19%; in assay [2] (setting [15]), 4.43%; in assay [3] (setting [16]), -9%; in assay [4] (setting [17]) it was -3.77%; in [5] (setting [18]), 2%; in [6] (setting [19]), -0.192%. The inhibition at 1 µM is 20% in assay [7] (setting [20]); -0.867% in [8] (setting [21]); 5.4% in [9] (setting [22]); 48% in assay [10] (setting [23]); 5.32% in assay [11] (setting [24]); -2% in [12] (setting [25]). Further, the inhibition at 1 µM in [13] (setting [26]) worked out at 0.682%.

With `Cn1cnc2c(F)c(Nc3ccc(Br)cc3F)c(C(=O)NOCCO)cc21` [binimetinib], the inhibition at 1 µM in assay [1] (setting [14]) is 6%; in assay [2] (setting [15]) it was -3%; in [3] (setting [16]), -5%; in assay [4] (setting [17]), -4.22%; in assay [5] (setting [18]) it was -7%; in assay [6] (setting [19]), 0.0508%. Further, the inhibition at 1 µM is 4.72% in assay [7] (setting [20]); 2% in assay [8] (setting [21]); -3.26% in assay [9] (setting [22]); 3.62% in assay [10] (setting [23]); -6.46% in assay [11] (setting [24]); -0.74% in assay [12] (setting [25]). In assay [13] (setting [26]), the inhibition at 1 µM stood at 1.08%.

Take `CNC(=O)c1ccc(-c2cnc3ncc(Cc4ccc5ncccc5c4)n3n2)cc1F` [capmatinib]: the inhibition at 1 µM in assay [1] was 16%; in assay [2], -1.43%; in [3], -9%; in assay [4], -3.18%; in assay [5] it was 1.06%; in assay [6], 1.54%. In addition, the inhibition at 1 µM is 5.68% in assay [7]; -1.26% in [8]; 0.266% in assay [9]; 16% in assay [10]; -2% in assay [11]; -2.49% in assay [12]. In assay [13], the inhibition at 1 µM is -0.67%.

With `COc1cc2ncnc(Nc3ccc(F)c(Cl)c3)c2cc1NC(=O)/C=C/CN1CCCCC1` [dacomitinib], the inhibition at 1 µM in assay [1] (setting [14]) was 16%; in assay [2] (setting [15]) it was 12%; in assay [3] (setting [16]) it was -7%; in assay [4] (setting [17]) it was -4%; in [5] (setting [18]), -2.68%; in assay [6] (setting [19]), -1.19%. Moreover, the inhibition at 1 µM was 33% in assay [7] (setting [20]); 0.231% in assay [8] (setting [21]); 11% in [9] (setting [22]); 6% in assay [10] (setting [23]); 2.73% in assay [11] (setting [24]); -20% in assay [12] (setting [25]). Besides, the inhibition at 1 µM in assay [13] (setting [26]) was determined as 53%.

As for `CN1CCN(c2ccc(C(=O)Nc3n[nH]c4ccc(Cc5cc(F)cc(F)c5)cc34)c(NC3CCOCC3)c2)CC1` [entrectinib], the inhibition at 1 µM in [1] (setting [14]) was 64%; in [2] (setting [15]), -4.58%; in [3] (setting [16]) it was -5.68%; in assay [4] (setting [17]) it was 1.84%; in assay [5] (setting [18]), 4.51%; in [6] (setting [19]), -3.69%. Moreover, the inhibition at 1 µM in assay [7] (setting [20]) was 25%; in assay [8] (setting [21]), -3%; in assay [9] (setting [22]), 41%; in [11] (setting [24]) it was 92%; in assay [12] (setting [25]), 0.413%; in assay [13] (setting [26]), 88%.

As for `C[C@H]1Oc2cc(cnc2N)-c2c(nn(C)c2C#N)CN(C)C(=O)c2ccc(F)cc21` [lorlatinib], the inhibition at 1 µM was 4.68% in assay [1] (setting [14]); -6% in assay [2] (setting [15]); 1.49% in [3] (setting [16]); -2% in assay [4] (setting [17]); 3.64% in assay [5] (setting [18]); -2.31% in assay [6] (setting [19]). Further, the inhibition at 1 µM is 8% in assay [7] (setting [20]); -4.48% in assay [8] (setting [21]); 92% in [9] (setting [22]); 28% in assay [11] (setting [24]); 7.56% in assay [12] (setting [25]); 63% in assay [13] (setting [26]).
